Measurements as given in PMC6547740, “Potent and specific MTH1 inhibitors targeting gastric cancer” (Cell Death & Disease, 2019).
Values belong to the compound of their own block, whether it stands above or below them.

Tests used:
HGC-27 cells [1] = experiment: Colony formation assay, HGC-27; type: cell-based, human; details: HGC-27, 7 days treatment, compared with DMSO or MI-929
Experimental: (§1) The day before treatment, cells were seeded into six-well plates at a concentration of 1 × 10^3 cells per well, and then the media were replaced with fresh media containing serial concentrations of candidate compounds. After 7 days of treatment, the cells were fixed with 75% ethanol, stained with 0.1% crystal violet solution and captured by the microscopy (Leica). After that, the crystal violet crystals were dissolved by adding methanol. The absorbance at 595 nm was measured by a BioTek micro plate reader. In the end, the data were analyzed using the GraphPad Prism 5 software.

MGC-803 cells [2] = experiment: Colony formation assay, MGC-803; type: cell-based, human; details: MGC-803, 7 days treatment, compared with DMSO or MI-929
Experimental: as §1

HepG2 cells = experiment: MTT cell viability, HepG2; type: cell-based; details: Homo sapiens, liver cancer cell line, 72 h
Experimental: (§2) The cell viability was determined by 3-(4,5-dimethylthiazol-2-yl)-2,5-diphenyltetrazolium bromide (MTT) assay, according to the manufacturer’s instructions. 1 day before treatment, cells were seeded into 96-well plates at a concentration of 2–5 × 10^3 cells per well, followed by treatment with fresh medium containing serial dilutions of candidate compounds for 48 or 72 h, 20 μL of MTT solution (5 mg/mL in PBS) was then added to each well. After treatment, the plates were incubated at 37 °C for another 4 h. Subsequently, the MTT solution was removed and 150 μL of DMSO was added to each well for 10 min, and then the plates were shaken to dissolve the dark blue crystal (formazan), the absorbance was detected at 570 nm using a BioTek microplate reader. The data were analyzed using SPSS 20 software.

L02 cells = experiment: MTT cell viability, L02; type: cell-based; details: Homo sapiens, normal liver cell line, 72 h
Experimental: as §2

EC9706 cells = experiment: MTT cell viability, EC9706; type: cell-based; details: Homo sapiens, esophageal cancer cell line, 72 h
Experimental: as §2

TE-1 cells = experiment: MTT cell viability, TE-1; type: cell-based; details: Homo sapiens, 72 h
Experimental: as §2

pc9 cells = experiment: MTT cell viability, pc9; type: cell-based; details: Homo sapiens, PC-9, 72 h
Experimental: as §2

SMMC-7721 cells = experiment: MTT cell viability, SMMC-7721; type: cell-based; details: Homo sapiens, liver cancer cell line, 72 h
Experimental: as §2

SGC-7901 cells = experiment: MTT cell viability, SGC-7901; type: cell-based; details: Homo sapiens, gastric cancer cell line, 72 h
Experimental: as §2

EC109 cells = experiment: MTT cell viability, EC109; type: cell-based; details: Homo sapiens, ECa-109, esophageal cancer cell line, 72 h
Experimental: as §2

Het-1A cells = experiment: MTT cell viability, Het-1A; type: cell-based; details: Homo sapiens, normal esophageal epithelial cell line, 72 h
Experimental: as §2

MKN45 cells = experiment: MTT cell viability, MKN45; type: cell-based; details: Homo sapiens, MKN-45, gastric cancer cell line, 72 h
Experimental: as §2

KYSE-450 cells = experiment: MTT cell viability, KYSE-450; type: cell-based; details: Homo sapiens, esophageal cancer cell line, 72 h
Experimental: as §2

ZIP177 cells = experiment: MTT cell viability, ZIP177; type: cell-based; details: Homo sapiens, liver cancer cell line, 72 h
Experimental: as §2

H1975 cells = experiment: MTT cell viability, H1975; type: cell-based; details: Homo sapiens, NCI-H1975, 72 h
Experimental: as §2

HGC-27 cells [3] = experiment: MTT cell viability, HGC-27; type: cell-based; details: Homo sapiens, gastric cancer cell line, 72 h
Experimental: as §2

MGC-803 cells [4] = experiment: MTT cell viability, MGC-803; type: cell-based; details: Homo sapiens, gastric cancer cell line, 72 h
Experimental: as §2

MTH1 [5] = target: T1, MTH1 (Homo sapiens, UniProt P36639); experiment: MTH1 recombinant protein activity / inhibitor screening (malachite green); type: biochemical; design: His-tag; made in house; host or cells: E. coli BL21(DE3); details: 5 nM recombinant MTH1, dGTP substrate, absorbance 630 nm; read-out: IC50 (MTH1 inhibition)
Experimental: On the basis of the ability of MTH1 in converting dGTP to dGMP and pyrophosphate, and the latter can then be hydrolyzed to […] by inorganic pyrophosphatase, the MTH1 activity was designed to measure the product of […], after its reaction with malachite green and ammonium molybdate(Fig. 2l), the green associated complex was measured at 630 nm by PerkinElmer Envision microplate reader.
Firstly, the assay buffer (100 mM Tris-acetate at pH 8.0, 40 mM NaCl, 10 mM Mg-acetate, 0.005% Tween 20 and 1 mM DTT) was added into a 96-well plate. Then, 5 nM recombinant human MTH1, […] dGTP and 0.2U/ml […] were added in sequence. After 60 min reaction, the mixture of 0.45 mg/mL malachite green and 4.2% ammonium molybdate in proportion of 3:1 were added. Then, the plates were incubated and shaken at room temperature for another 60 min. The absorbance was measured at 630 nm using the PerkinElmer Envision micro plate reader.

B16-F10 cells = experiment: MTT cell viability, B16-F10; type: cell-based; details: Mus musculus, 72 h
Experimental: as §2

HL-7702 cells = experiment: MTT cell viability, HL-7702; type: cell-based; details: Homo sapiens, L02, normal liver cell line, 72 h
Experimental: as §2

MTH1 [6] = target: T1, MTH1; experiment: Cellular thermal shift assay (CETSA), MTH1; type: binding; design: endogenous in cells; host or cells: MGC-803 (human gastric cancer cell line); details: MGC-803 cells, 50 µM compound, heated 10 min from 43 to 61 °C, western blot
Experimental: Cellular thermal shift assay (CETSA), also known as the target engagement assay was one-way to detect the intracellular interaction ability of compounds with its specific target. Firstly, cells were seeded into T75 culture flasks and cultured overnight. Then, the cells were treated with cell media containing 1‰ DMSO as blank control and candidate compounds for 3–5 h. Next, the cells were collected by centrifugation and resuspended by PBS, then the cells were aliquoted into 7 PCR tubes and heated using PCR instrument for 10 min from 43 to 61 °C. After that, cells were lysed using liquid nitrogen and three repeated cycles of freeze-thawing. Then, samples were centrifuged at 12,000 × g for 20 min at 4 °C. Supernatants were denatured at 100 °C for 10 min and kept at −20 °C until Western Blot analysis.

GES-1 cells = experiment: MTT cell viability, GES-1; type: cell-based; details: Homo sapiens, GES1, normal gastric epithelial cell line, 72 h
Experimental: as §2

MCF-7 cells = experiment: MTT cell viability, MCF-7; type: cell-based; details: Homo sapiens, MCF7, breast cancer cell line, 72 h
Experimental: as §2

SMILES: C[C@H](Oc1cc(-c2cnn(C3CCNCC3)c2)cnc1N)c1c(Cl)ccc(F)c1Cl [(S)-crizotinib]
colony formation (HGC-27 cells [1]): smaller and fewer colonies
colony formation (MGC-803 cells [2]): smaller and fewer colonies

IC50 (HepG2 cells): > 50 µM
IC50 (pc9 cells): > 50 µM
IC50 (SMMC-7721 cells): > 50 µM
IC50 (SGC-7901 cells): > 50 µM
IC50 (MKN45 cells): > 50 µM
IC50 (H1975 cells): > 50 µM
IC50 (MGC-803 cells [4]): > 50 µM
IC50 (MTH1 [5]): > 50000 nM
IC50 (B16-F10 cells): > 50 µM
temperature of MTH1 degradation (MTH1 [6]): 49 °C
IC50 (MCF-7 cells): > 50 µM
SMILES: COc1ccccc1NC(=O)NC(=O)CSC(=S)N1CCCC1 [MI-929]
IC50 (L02 cells): > 50 µM
IC50 (EC9706 cells): > 50 µM
IC50 (TE-1 cells): > 50 µM
IC50 (EC109 cells): > 50 µM
IC50 (Het-1A cells): > 50 µM
IC50 (KYSE-450 cells): > 50 µM
IC50 (ZIP177 cells): > 50 µM
IC50 (HGC-27 cells [3]): > 50 µM
IC50 (HL-7702 cells): > 50 µM
IC50 (GES-1 cells): > 50 µM

SMILES: Nc1nc(NC2CC2)cc(-c2cccc(Cl)c2Cl)n1 [TH588]
colony formation (HGC-27 cells [1]): smaller and fewer colonies
colony formation (MGC-803 cells [2]): smaller and fewer colonies

melting point: 155 to 156 °C
IC50 (MTH1 [5]): 461.3 ± 2.67 nM
temperature of MTH1 degradation (MTH1 [6]): 49 °C
SMILES: Cc1ccc(Nc2nc(SCc3cn(CC(=O)NC(=O)Nc4ccccn4)nn3)nc(-c3ccc(Br)cc3)c2C#N)cc1 [MI-401, 2-(4-((4-(4-bromophenyl)-5-cyano-6-(p-tolylamino)pyrimidin-2-yl)thiomethyl)-1H-1,2,3-triazol-1-yl)-N-(pyridin-2-ylcarbamoyl)acetamide]
